Experimental data published in ChEMBL document CHEMBL1201862, “PubChem BioAssay data set” (2004).
The source made the active and inactive calls.

How the values were obtained:
[1] = target: T1, Polyadenylate-binding protein 1 (Homo sapiens, UniProt P11940); experiment: MLLE binding blockers, Cy5 peptide tracer – biochemical, fluorescence polarization, Cy5-PAM2 peptide, secondary, miRNA deadenylation inhibitor project, dose response (AID 602260); assay type: functional; details: read-out: IC50_Mean
T1 sequence (P11940 whole entry, the tested form may be a part): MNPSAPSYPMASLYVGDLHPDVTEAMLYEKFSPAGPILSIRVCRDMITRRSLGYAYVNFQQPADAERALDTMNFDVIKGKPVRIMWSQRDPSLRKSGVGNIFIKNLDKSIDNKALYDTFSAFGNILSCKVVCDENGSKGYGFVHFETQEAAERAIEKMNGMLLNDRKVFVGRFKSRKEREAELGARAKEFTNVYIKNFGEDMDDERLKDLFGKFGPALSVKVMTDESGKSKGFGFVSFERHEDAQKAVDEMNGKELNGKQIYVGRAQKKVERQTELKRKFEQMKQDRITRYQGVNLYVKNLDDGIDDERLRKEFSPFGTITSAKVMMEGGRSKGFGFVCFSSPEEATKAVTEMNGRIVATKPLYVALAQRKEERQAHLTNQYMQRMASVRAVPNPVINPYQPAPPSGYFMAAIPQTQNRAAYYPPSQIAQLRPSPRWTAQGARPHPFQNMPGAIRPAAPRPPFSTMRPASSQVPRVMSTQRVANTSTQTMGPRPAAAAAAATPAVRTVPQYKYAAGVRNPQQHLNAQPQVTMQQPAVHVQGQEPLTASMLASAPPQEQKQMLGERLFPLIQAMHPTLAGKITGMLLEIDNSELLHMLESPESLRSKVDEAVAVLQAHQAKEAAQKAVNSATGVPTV

[2] = target: T1, Polyadenylate-binding protein 1; experiment: MLLE domain peptide-binding blockers, IC50 – biochemical, fluorescence polarization, FITC-PAM2 peptide, dose response (AID 602259); assay type: functional; details: read-out: IC50_Mean
Genome polyprotein = Genome polyprotein (dengue virus type 2, UniProt P29990); experiment: flavivirus cap methylation enzyme inhibition – biochemical, confirmation dose response, primary screen (AID 588689); assay type: functional
Chain of Genome polyprotein (P29990 2492-3391 limits assumed): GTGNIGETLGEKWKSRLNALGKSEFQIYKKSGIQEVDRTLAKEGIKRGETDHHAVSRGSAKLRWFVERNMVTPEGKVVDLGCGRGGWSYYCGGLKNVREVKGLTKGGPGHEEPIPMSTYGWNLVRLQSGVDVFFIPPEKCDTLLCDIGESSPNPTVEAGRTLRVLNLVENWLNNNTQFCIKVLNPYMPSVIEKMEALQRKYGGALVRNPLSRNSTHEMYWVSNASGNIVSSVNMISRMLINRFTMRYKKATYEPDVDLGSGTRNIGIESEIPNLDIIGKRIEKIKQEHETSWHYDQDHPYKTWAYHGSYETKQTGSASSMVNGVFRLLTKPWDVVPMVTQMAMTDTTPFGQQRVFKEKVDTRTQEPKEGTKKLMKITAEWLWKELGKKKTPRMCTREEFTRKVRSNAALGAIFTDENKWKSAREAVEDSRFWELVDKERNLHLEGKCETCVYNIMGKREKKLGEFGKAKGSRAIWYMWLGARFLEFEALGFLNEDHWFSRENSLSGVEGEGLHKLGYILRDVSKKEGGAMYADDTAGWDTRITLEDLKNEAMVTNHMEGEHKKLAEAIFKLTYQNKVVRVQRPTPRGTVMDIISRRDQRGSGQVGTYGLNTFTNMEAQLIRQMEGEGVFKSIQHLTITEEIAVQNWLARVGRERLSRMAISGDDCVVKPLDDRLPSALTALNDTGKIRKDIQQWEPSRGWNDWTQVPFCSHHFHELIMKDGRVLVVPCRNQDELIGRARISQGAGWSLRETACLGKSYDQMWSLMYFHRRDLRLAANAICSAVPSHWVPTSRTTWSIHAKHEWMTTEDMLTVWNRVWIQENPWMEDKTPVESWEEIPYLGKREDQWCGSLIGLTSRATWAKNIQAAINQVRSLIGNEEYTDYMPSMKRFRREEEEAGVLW

Cytochrome P450 2C19 = Cytochrome P450 2C19 (Homo sapiens, UniProt P33261); experiment: Cytochrome panel assay with activity outcomes. Panel member name: p450-cyp2c19 Compounds with AC50 equal or less than 10 uM are considered active; assay type: functional; details: read-out: AC50
Chain of Cytochrome P450 2C19 (P33261 whole entry): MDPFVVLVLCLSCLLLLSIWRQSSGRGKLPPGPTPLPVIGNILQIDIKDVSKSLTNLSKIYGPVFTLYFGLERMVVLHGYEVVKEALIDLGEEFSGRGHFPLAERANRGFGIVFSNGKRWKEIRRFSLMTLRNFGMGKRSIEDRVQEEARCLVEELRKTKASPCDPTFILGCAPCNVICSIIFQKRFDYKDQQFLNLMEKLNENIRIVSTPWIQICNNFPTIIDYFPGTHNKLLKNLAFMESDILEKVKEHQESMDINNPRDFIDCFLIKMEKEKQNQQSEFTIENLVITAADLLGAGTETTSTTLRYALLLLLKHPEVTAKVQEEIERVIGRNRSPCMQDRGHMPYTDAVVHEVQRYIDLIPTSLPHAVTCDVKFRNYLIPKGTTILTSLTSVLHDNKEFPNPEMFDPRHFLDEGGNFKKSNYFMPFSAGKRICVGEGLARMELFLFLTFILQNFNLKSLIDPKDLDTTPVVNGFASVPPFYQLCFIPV

Cytochrome P450 3A4 = Cytochrome P450 3A4 (Homo sapiens, UniProt P08684);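 also: CYP3A4 tested as one member of a cytochrome P450 panel screen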
Chain of Cytochrome P450 3A4 (P08684 whole entry): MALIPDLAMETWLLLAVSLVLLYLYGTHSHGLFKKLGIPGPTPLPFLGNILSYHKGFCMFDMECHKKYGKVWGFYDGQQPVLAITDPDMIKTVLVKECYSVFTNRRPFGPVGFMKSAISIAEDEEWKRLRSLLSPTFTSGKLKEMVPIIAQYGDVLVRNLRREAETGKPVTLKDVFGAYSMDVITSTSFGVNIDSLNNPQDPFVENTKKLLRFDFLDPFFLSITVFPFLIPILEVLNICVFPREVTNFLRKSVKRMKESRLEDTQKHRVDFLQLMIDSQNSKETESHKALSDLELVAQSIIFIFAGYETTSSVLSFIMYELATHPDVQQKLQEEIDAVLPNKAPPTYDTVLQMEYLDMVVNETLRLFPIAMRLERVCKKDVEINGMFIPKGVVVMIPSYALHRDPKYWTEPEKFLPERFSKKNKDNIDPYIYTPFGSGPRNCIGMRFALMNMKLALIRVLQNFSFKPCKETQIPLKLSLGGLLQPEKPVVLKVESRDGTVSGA

Cytochrome P450 2C9 = Cytochrome P450 2C9 (Homo sapiens, UniProt P11712)
Chain of Cytochrome P450 2C9 (P11712 whole entry): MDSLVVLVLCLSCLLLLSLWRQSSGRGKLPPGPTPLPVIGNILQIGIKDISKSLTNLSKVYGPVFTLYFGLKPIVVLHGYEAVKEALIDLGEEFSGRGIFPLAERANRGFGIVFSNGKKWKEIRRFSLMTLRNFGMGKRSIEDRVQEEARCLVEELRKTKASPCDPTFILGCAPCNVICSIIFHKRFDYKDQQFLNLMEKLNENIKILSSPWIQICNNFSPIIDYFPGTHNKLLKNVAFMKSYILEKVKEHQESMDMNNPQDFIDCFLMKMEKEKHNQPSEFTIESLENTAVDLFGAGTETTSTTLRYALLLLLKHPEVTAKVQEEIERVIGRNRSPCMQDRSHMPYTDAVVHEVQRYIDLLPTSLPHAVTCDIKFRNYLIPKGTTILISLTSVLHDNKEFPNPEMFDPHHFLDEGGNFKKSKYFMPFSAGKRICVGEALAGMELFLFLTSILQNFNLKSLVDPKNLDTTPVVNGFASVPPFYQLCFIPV

Cytochrome P450 2D6 = Cytochrome P450 2D6 (Homo sapiens, UniProt P10635);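 also: CYP2D6 member of a cytochrome P450 panel assay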
Chain of Cytochrome P450 2D6 (P10635 whole entry): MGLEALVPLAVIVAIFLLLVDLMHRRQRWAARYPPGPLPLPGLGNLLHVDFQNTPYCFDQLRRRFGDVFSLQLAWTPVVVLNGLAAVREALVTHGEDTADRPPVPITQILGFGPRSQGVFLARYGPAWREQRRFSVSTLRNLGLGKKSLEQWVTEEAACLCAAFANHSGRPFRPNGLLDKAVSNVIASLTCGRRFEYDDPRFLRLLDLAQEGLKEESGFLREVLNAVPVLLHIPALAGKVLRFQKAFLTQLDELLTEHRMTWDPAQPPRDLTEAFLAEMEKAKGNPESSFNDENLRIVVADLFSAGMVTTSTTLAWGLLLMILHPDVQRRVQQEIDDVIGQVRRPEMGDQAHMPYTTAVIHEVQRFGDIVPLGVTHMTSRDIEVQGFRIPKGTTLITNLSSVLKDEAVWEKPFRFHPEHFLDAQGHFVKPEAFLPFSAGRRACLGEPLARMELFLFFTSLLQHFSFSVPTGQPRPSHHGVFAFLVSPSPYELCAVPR

[3] = Luminescence Cell-Based Dose Response HTS to Identify Inhibitors of 5'UTR Stem-Loop Driven Prion Protein mRNA Translation in H4 Neuroglioblastoma Cells. [Related pubchem assays: 1827 (Project Summary), 1813 (Primary HTS)]; assay type: functional
Cytochrome P450 1A2 = target: T2, Cytochrome P450 1A2 (Homo sapiens, UniProt P05177);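 also: PubChem cytochrome P450 panel assay, CYP1A2 panel member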
T2 sequence (P05177 whole entry): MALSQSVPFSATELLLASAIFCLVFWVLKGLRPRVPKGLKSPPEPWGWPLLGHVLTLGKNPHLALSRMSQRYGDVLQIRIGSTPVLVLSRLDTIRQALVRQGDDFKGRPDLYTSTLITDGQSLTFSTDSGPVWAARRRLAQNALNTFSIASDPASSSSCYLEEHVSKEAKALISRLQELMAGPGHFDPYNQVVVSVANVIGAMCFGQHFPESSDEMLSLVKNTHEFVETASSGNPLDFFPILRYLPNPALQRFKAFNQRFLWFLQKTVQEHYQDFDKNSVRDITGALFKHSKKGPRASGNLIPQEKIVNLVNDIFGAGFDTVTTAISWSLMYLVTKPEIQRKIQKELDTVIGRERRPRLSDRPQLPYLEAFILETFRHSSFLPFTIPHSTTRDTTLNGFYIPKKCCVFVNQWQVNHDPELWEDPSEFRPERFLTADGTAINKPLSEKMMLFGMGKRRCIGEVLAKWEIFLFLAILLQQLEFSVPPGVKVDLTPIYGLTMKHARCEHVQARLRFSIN

cells = assay type: functional
[4] = target: T3, High affinity choline transporter 1 (Homo sapiens, UniProt Q9GZV3); experiment: human choline transporter blockers, potency – cell-based, 5-point CRC, membrane potential dye, dose response (AID 504840); assay type: functional
T3 sequence (Q9GZV3 whole entry): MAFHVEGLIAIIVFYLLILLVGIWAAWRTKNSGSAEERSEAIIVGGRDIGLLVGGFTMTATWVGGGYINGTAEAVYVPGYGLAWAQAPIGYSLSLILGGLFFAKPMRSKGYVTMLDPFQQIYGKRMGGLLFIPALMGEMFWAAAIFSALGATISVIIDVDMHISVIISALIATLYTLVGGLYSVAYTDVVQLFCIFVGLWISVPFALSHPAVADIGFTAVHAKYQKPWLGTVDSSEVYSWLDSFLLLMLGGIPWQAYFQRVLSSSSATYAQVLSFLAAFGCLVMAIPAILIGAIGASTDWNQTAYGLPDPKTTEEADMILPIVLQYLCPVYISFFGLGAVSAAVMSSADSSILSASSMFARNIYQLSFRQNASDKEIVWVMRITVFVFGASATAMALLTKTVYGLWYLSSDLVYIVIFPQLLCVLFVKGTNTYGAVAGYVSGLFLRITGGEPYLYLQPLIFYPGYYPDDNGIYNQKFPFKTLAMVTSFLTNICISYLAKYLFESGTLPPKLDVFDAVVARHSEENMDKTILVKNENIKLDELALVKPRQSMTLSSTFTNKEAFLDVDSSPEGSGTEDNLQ

[5] = test system: Streptococcus sp. 'group A'; experiment: Streptococcus pyogenes SK(-)GAS viability under kanamycin – luminescence, BacTiterGlo, confirmation, counter-screen for streptokinase expression inhibitor project, dose response (AID 1900); assay type: functional, organism-based
Streptococcus = experiment: GAS UMAA2166 growth inhibition – luminescence, BacTiterGlo, counter-screen for streptokinase expression inhibitor project, dose response (AID 1915); assay type: functional, organism-based;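 also: potency for reduction of bacterial viability or growth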
[6] = NIH3T3 cell viability loss – ATP luminescence, mouse fibroblasts, counter-screen, dose response (AID 2010); assay type: functional, cell-based;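 also: cells exposed to compound for about 90 hours before reading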
[7] = non-specific 3'UTR reporter inhibition in Clone20-Shn3RL – cell-based, Renilla luciferase, cherry-picked, counter-screen for Shn3 inhibitor project, dose response (AID 624133); assay type: functional
[8] = Trypanosoma cruzi growth suppression in host cells – NIH3T3 host cells, beta-gal luminescence, confirmation (AID 2044); assay type: functional, cell-based;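 also: intracellular parasites grown in NIH/3T3 mouse fibroblasts as host cells; luminescent beta-galactosidase reporter signal from transgenic T. cruzi replicating inside host cells; inhibitors lower the luminescence signal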
[9] = loss of viability in HepG2 cells – cell-based, CellTiter-Glo, cherry-picked, cytotoxicity control for Shn3 inhibitor project, dose response (AID 624134); assay type: functional
[10] = reduction of Shn3 3'UTR-driven luciferase in osteoblasts – cell-based, Clone20 osteoblasts, firefly luciferase, cherry-picked, dose response (AID 624132); assay type: functional;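 also: firefly luciferase luminescence from reporter carrying the Shn3 3'UTR in osteoblasts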

Compound: COC(=O)C1=C(C(=O)OC)C(c2ccccc2O)c2sc(O)nc2S1 (configuration not stated)
- IC50 [1]: > 66 µM (inactive)
- IC50 [2]: > 66 µM (inactive)
- IC50 (Genome polyprotein): 93.2 µM (active)

Compound: O=C(Nc1ccc(OC(F)(F)F)cc1)c1n[nH]c(Cn2cncn2)n1
- AC50 (Cytochrome P450 2C19): 2.51 µM (inconclusive)
- AC50 (Cytochrome P450 3A4): 15.8 µM (inconclusive)
- AC50 (Cytochrome P450 2C9): 11.2 µM (inconclusive)
- AC50 (Cytochrome P450 2D6): 20 µM (inconclusive)

Compound: CN(C)c1ncc2nc(CCc3ccccc3)c(=O)n(C3CC3)c2n1
- AC50 (Cytochrome P450 3A4): 10 µM (inconclusive)
- AC50 (Cytochrome P450 2D6): 10 µM (inconclusive)

Compound: CC#CC(=O)N1CCC(CCc2ccccc2)(C(=O)OCC)CC1
- EC50 [3]: > 120 µM (not active)

Compound: CO[C@H]1C=C2CCN(C)[C@@H]2[C@@H]2c3cc4c(cc3C(=O)O[C@H]21)OCO4
- AC50 (Cytochrome P450 1A2): 12.6 µM (inconclusive)
- AC50 (Cytochrome P450 2D6): 10 µM (inconclusive)

Compound: C#CCOc1c(Cl)cc(/C=C2/C(=O)ON=C2C)cc1OCC
- IC50 (Genome polyprotein): > 100 µM (active)

Compound: Cc1ccc(OC(=O)CCS(=O)(=O)c2ccc(C)cc2)cc1
- IC50 (cells): < 0.1 µM (active)

Compound: CC1CCC(NC(=O)c2ccc(NC(=O)CC3SC(N4CCCC4)=NC3=O)cc2)CC1 (configuration not stated)
- IC50 [4]: 14.5 µM (active)

Compound: O=C(COc1ccccc1)Nc1nnc(-c2ccc(Cl)cc2)o1
- IC50 (cells): 34.6 µM (active)

Compound: CC1=NN(C(N)=S)C(=O)C1N=Nc1c(Br)cc(Br)cc1Br (configuration not stated)
- EC50 [5]: 2.76 µM (active)
- EC50 (Streptococcus): 8.6 µM (active)
- IC50 [4]: 12 µM (active)
- IC50 (Genome polyprotein): 43.5 µM (active)

Compound: CC1=NN(C(=O)c2ccccc2F)C(O)(c2ccc(Cl)cc2)C1 (configuration not stated)
- IC50 (cells): > 50 µM (active)

Compound: O=C1OC(c2ccccc2)C(C(=O)c2ccc(Cl)cc2)=C1O (configuration not stated)
- IC50 (Genome polyprotein): 83.4 µM (active)

Compound: Clc1ccc(C[n+]2cc(-c3ccccc3)n3c2CCCCC3)c(Cl)c1
- EC50 [6]: 15.3 µM (active)
- AC50 [7]: 1.21 µM (active)
- EC50 [8]: 0.273 µM (active)
- AC50 [9]: > 70 µM (inactive)
- AC50 [10]: 1.2 µM (active)
